Measurements: PubChem BioAssay AID192 (DTP/NCI, 2004)
Several values for one entry are separate records, joined by “and”; a condition that tells them apart may be missing. Identical values can stand only once. Inconclusive results and toxic doses are left out. The calls were made as follows: active = survival T/C of 150% or more; inactive = T/C below 125% in these data.

Tested on: BDF1 mice, B16 melanoma ip, median survival T/C
Experiment: NCI In Vivo Anticancer Drug Screen. Data for tumor model B16 Melanoma (intraperitoneal) in B6D2F1 (BDF1) mice
Settings: endpoint: median survival time, higher = longer survival
Method in brief: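 Read-out: survival or tumor size, given as treated/control ratio. Controls received vehicle only; animals bore transplantable tumors.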

[1] = dose: 25.0 mg/kg/injection, schedule: Q01DX009 (ip), vehicle: saline with Tween-80
[2] = dose: 50.0 mg/kg/injection, schedule: Q01DX009 (ip), vehicle: saline with Tween-80
[3] = dose: 100.0 mg/kg/injection, schedule: Q01DX009 (ip), vehicle: saline with Tween-80
[4] = dose: 100.0 mg/kg/injection, schedule: Q01DX009 (ip), vehicle: saline
[5] = dose: 200.0 mg/kg/injection, schedule: Q01DX009 (ip), vehicle: saline
[6] = dose: 200.0 mg/kg/injection, schedule: Q01DX009 (ip), vehicle: saline with Tween-80
[7] = dose: 400.0 mg/kg/injection, schedule: Q01DX009 (ip), vehicle: saline with Tween-80
[8] = dose: 12.5 mg/kg/injection, schedule: Q01DX009 (ip), vehicle: saline
[9] = dose: 25.0 mg/kg/injection, schedule: Q01DX009 (ip), vehicle: saline
[10] = dose: 50.0 mg/kg/injection, schedule: Q01DX009 (ip), vehicle: saline
[11] = dose: 50.0 mg/kg/injection, schedule: Q01DX009 (ip), vehicle: Klucel (hydroxypropylcellulose) (HPC)
[12] = dose: 100.0 mg/kg/injection, schedule: Q01DX009 (ip), vehicle: Klucel (hydroxypropylcellulose) (HPC)
[13] = dose: 200.0 mg/kg/injection, schedule: Q01DX009 (ip), vehicle: Klucel (hydroxypropylcellulose) (HPC)
[14] = dose: 400.0 mg/kg/injection, schedule: Q01DX009 (ip), vehicle: Klucel (hydroxypropylcellulose) (HPC)
[15] = dose: 3.12 mg/kg/injection, schedule: Q01DX009 (ip), vehicle: saline
[16] = dose: 6.25 mg/kg/injection, schedule: Q01DX009 (ip), vehicle: saline

Measured: T/C

CC1=CC(=O)C(O)C2(C)C1CC(O)C13COC4(C)C(OC(=O)C41)C(O)C23 (stereo not given)
inactive: dose: 1.0 mg/kg/injection, schedule: Q01DX009 (ip), vehicle: saline with Tween-80 97 % of control | dose: 2.0 mg/kg/injection, schedule: Q01DX009 (ip), vehicle: saline with Tween-80 101 % of control | dose: 4.0 mg/kg/injection, schedule: Q01DX009 (ip), vehicle: saline with Tween-80 97 % of control

Cc1ccc(NS(=O)(=O)c2ccc(Cl)cc2)cc1Cl
inactive: [1] 99 % of control | [2] 99 % of control | [3] 95 % of control

CC(=O)c1cccc(NC2C(N)C(NC(=O)N(C)C)(C(C)O)C(C)(O)C2(O)COC(=O)c2c(C)cccc2O)c1 (stereo not given)
inactive: dose: 0.3 mg/kg/injection, schedule: Q01DX009 (ip), vehicle: saline with Tween-80 115 % of control | dose: 0.3 mg/kg/injection, schedule: Q01DX009 (ip), vehicle: saline 113 % of control | dose: 0.5 mg/kg/injection, schedule: Q01DX009 (ip), vehicle: Klucel (hydroxypropylcellulose) (HPC) 116 % of control | dose: 0.6 mg/kg/injection, schedule: Q01DX009 (ip), vehicle: saline 113 % of control | dose: 1.0 mg/kg/injection, schedule: Q01DX009 (ip), vehicle: Klucel (hydroxypropylcellulose) (HPC) 113 % of control | dose: 1.2 mg/kg/injection, schedule: Q01DX009 (ip), vehicle: saline 122 % of control

COC12C(COC(N)=O)C3=C(C(=O)C(C)=C(N)C3=O)N1CC1C2N1C (stereo not given)
inactive: dose: 0.25 mg/kg/injection, schedule: Q01DX009 (ip), vehicle: saline 120 % of control | dose: 0.5 mg/kg/injection, schedule: Q01DX009 (ip), vehicle: saline 123 % of control | dose: 1.0 mg/kg/injection, schedule: Q01DX009 (ip), vehicle: saline 114 % of control | dose: 2.0 mg/kg/injection, schedule: Q01DX009 (ip), vehicle: Klucel (hydroxypropylcellulose) (HPC) 106 % of control | dose: 4.0 mg/kg/injection, schedule: Q01DX009 (ip), vehicle: Klucel (hydroxypropylcellulose) (HPC) 124 % of control

C=C1CCN(c2ccc(C)cc2)C1=O
inactive: dose: 4.0 mg/kg/injection, schedule: Q01DX009 (ip), vehicle: saline + alcohol 91 % of control | dose: 8.0 mg/kg/injection, schedule: Q01DX009 (ip), vehicle: saline + alcohol 88 % of control | dose: 16.0 mg/kg/injection, schedule: Q01DX009 (ip), vehicle: saline + alcohol 94 % of control | dose: 32.0 mg/kg/injection, schedule: Q01DX009 (ip), vehicle: saline + alcohol 89 % of control | dose: 64.0 mg/kg/injection, schedule: Q01DX009 (ip), vehicle: saline + alcohol 104 % of control

OC(CI)C(O)C(O)C(O)CI (stereo not given)
inactive: [4] 97 % of control | [5] 94 % of control | dose: 400.0 mg/kg/injection, schedule: Q01DX009 (ip), vehicle: saline 103 % of control

COc1cccc(OC)c1OC(=O)/C=C\C(=O)Oc1c(OC)cccc1OC
inactive: dose: 75.0 mg/kg/injection, schedule: Q01DX009 (ip), vehicle: Klucel (hydroxypropylcellulose) (HPC) 100 % of control | dose: 150.0 mg/kg/injection, schedule: Q01DX009 (ip), vehicle: Klucel (hydroxypropylcellulose) (HPC) 100 % of control | dose: 300.0 mg/kg/injection, schedule: Q01DX009 (ip), vehicle: Klucel (hydroxypropylcellulose) (HPC) 100 % of control

COc1cc(C2C(C(=O)OC/C=C/c3ccc4c(c3)OCO4)C(c3cc(OC)c(OC)c(OC)c3)C2C(=O)OC/C=C/c2ccc3c(c2)OCO3)cc(OC)c1OC (stereo not given)
inactive: [2] 98 % of control | [3] 92 % of control | [6] 88 % of control | [7] 91 % of control

CC(N)C(=O)NC(CC(=O)O)C(=O)O (stereo not given)
inactive: [8] 99 % of control | [9] 93 % of control | [10] 98 % of control | [4] 93 % of control | [5] 98 % of control

CCOC(=O)C1CC(c2ccccc2)=NN1c1ccccc1 (stereo not given)
inactive: [11] 97 % of control | [12] 104 % of control | [13] 100 % of control | [14] 97 % of control

NC(CCl)=NCC12CC3CC(CC(C3)C1)C2
inactive: dose: 3.0 mg/kg/injection, schedule: Q01DX009 (ip), vehicle: Klucel (hydroxypropylcellulose) (HPC) 110 % of control | dose: 3.12 mg/kg/injection, schedule: Q01DX009 (ip), vehicle: Klucel (hydroxypropylcellulose) (HPC) 100 % of control | dose: 6.0 mg/kg/injection, schedule: Q01DX009 (ip), vehicle: Klucel (hydroxypropylcellulose) (HPC) 100 % of control | dose: 12.0 mg/kg/injection, schedule: Q01DX009 (ip), vehicle: Klucel (hydroxypropylcellulose) (HPC) 107 % of control | dose: 24.0 mg/kg/injection, schedule: Q01DX009 (ip), vehicle: Klucel (hydroxypropylcellulose) (HPC) 102 % of control | dose: 48.0 mg/kg/injection, schedule: Q01DX009 (ip), vehicle: Klucel (hydroxypropylcellulose) (HPC) 120 % of control

CN(C)c1ccc2c(SCC(=O)OCC(=O)[C@@]3(O)CC[C@H]4[C@@H]5CCC6=CC(=O)C=C[C@]6(C)[C@H]5C(=O)C[C@@]43C)c3ccc(N(C)C)cc3nc2c1
inactive: dose: 25.0 mg/kg/injection, schedule: Q01DX009 (ip), vehicle: Klucel (hydroxypropylcellulose) (HPC) 101 % of control | [11] 96 % of control | [12] 101 % of control | [13] 113 % of control | [14] 98 % of control

O=Cc1cc([N+](=O)[O-])ccc1Cl
inactive: [2] 95 % of control | [3] 92 % of control

NC(Cc1ccc(O)cc1)C(=O)OCc1ccccc1 (stereo not given)
inactive: [3] 102 % of control | [6] 114 % of control | [7] 98 % of control

CC(C)C1(c2ccsc2)NC(=O)NC1=O (stereo not given)
inactive: [11] 108 % of control | [12] 122 % of control | [13] 109 % of control

CN1CCC(CN2c3ccccc3Sc3ccccc32)C1 (stereo not given)
inactive: [15] 105 % of control | [16] 89 % of control | [8] 94 % of control | [9] 107 % of control | [10] 92 % of control

C/C(=N/NC(N)=S)c1ccc2ccccc2c1
inactive: dose: 6.0 mg/kg/injection, schedule: Q01DX009 (ip), vehicle: saline with Tween-80 111 % of control | dose: 12.0 mg/kg/injection, schedule: Q01DX009 (ip), vehicle: saline with Tween-80 105 % of control

C[CH2][Sn]([CH2]C)([O]S(=O)(=O)CC12CCC(CC1=O)C2(C)C)[O]S(=O)(=O)CC12CCC(CC1=O)C2(C)C
inactive: dose: 1.56 mg/kg/injection, schedule: Q01DX009 (ip), vehicle: saline 100 % of control | [15] 108 % of control | [16] 115 % of control | [8] 100 % of control | [9] 96 % of control

CC(=O)ON(C(C)=O)c1ccc(C(N)=O)cc1
inactive: [1] 91 % of control | [2] 89 % of control | [3] 86 % of control | [6] 88 % of control | [7] 94 % of control

C=CCOCC(O)CN(C)C1CCCCC1 (stereo not given)
inactive: dose: 12.5 mg/kg/injection, schedule: Q04DX003 (ip), vehicle: saline 121 % of control | dose: 25.0 mg/kg/injection, schedule: Q04DX003 (ip), vehicle: saline 100 % of control | dose: 50.0 mg/kg/injection, schedule: Q04DX003 (ip), vehicle: saline 100 % of control and 104 % of control

O=c1cc[nH]c(=O)o1
inactive: dose: 6.25 mg/kg/injection, schedule: Q01DX009 (ip), vehicle: water 104 % of control | dose: 12.5 mg/kg/injection, schedule: Q01DX009 (ip), vehicle: water 111 % of control | dose: 25.0 mg/kg/injection, schedule: Q01DX009 (ip), vehicle: water 108 % of control

O=P(O)(O)OCCCl
inactive: dose: 100.0 mg/kg/injection, schedule: Q04DX003 (ip), vehicle: Klucel (hydroxypropylcellulose) (HPC) 100 % of control | dose: 200.0 mg/kg/injection, schedule: Q04DX003 (ip), vehicle: Klucel (hydroxypropylcellulose) (HPC) 94 % of control | dose: 400.0 mg/kg/injection, schedule: Q04DX003 (ip), vehicle: Klucel (hydroxypropylcellulose) (HPC) 103 % of control

O=C(Nc1cccc(C(F)(F)F)c1)c1ccc(Cl)c(Cl)c1
inactive: dose: 50.0 mg/kg/injection, schedule: Q01DX009 (ip), vehicle: gum acacia 105 % of control | dose: 100.0 mg/kg/injection, schedule: Q01DX009 (ip), vehicle: gum acacia 119 % of control | dose: 200.0 mg/kg/injection, schedule: Q01DX009 (ip), vehicle: gum acacia 113 % of control | dose: 400.0 mg/kg/injection, schedule: Q01DX009 (ip), vehicle: gum acacia 100 % of control
